Legend:
H/M cells [1] = assay: colony formation and replating assay; type: cell-based, mouse
Source text: (§1) To elucidate the molecular mechanisms underlying Meis1's contribution to leukemogenesis, a retroviral transplantation model was employed in which lineage-depleted mouse bone marrow cells were transduced with an MSCV-Hoxa9-PGK-neo construct, alone or in combination with an MSCV-Meis1-IRES-YFP construct that induced a 22-fold overexpression of Meis1. As reported by previously, the transformed cells could be cultured in vitro in the presence of IL3/IL6/SCF and expressed the expected immunophenotype characterized by the myeloid markers Mac-1 and Gr-1 as well as c-Kit (Pineault et al., 2005; Wang et al., 2005). When transplanted into irradiated recipient mice, cells transduced with Hoxa9 (H) or Hoxa9/Meis1 (H/M) gave rise to leukemia resulting in a median overall survival of 114 days and 41 days, respectively (p<0.001; FIG. 1A). This difference in survival is in accordance with previously published results and reflects the aggressiveness of Hoxa9/Meis1-driven AML observed in patients (Kroon et al., 1998).
The inventors next sought to characterize the functional consequences of Syk overexpression in the context of Hoxa9-driven leukemias. […]
To test whether the enhanced Syk signaling observed in H/M cells could be exploited therapeutically, the effects of Syk inhibitors and of an shRNA-mediated knockdown of Syk in H/M cells, in vitro and in vivo were analyzed.

H/S cells = assay: colony formation and replating assay; type: cell-based, mouse
Source text: (§2) The inventors next sought to characterize the functional consequences of Syk overexpression in the context of Hoxa9-driven leukemias. For this purpose, the consequences of a lentiviral overexpression of human SYK (hSYK) in H cells in vitro and in vivo were examined. […] While Hoxa9 alone is sufficient to enable replating, both Meis1 and hSYK enhanced replating efficiency.

H/M cells [2] = assay: time-lapse microscopy and single-cell tracking; type: cell-based, mouse; settings: compared with DMSO-treated cells, tracked over more than 50 hours
Experimental: (§3) The effect of Syk inhibition in H and H/M cells was further examined by monitoring the fate of individual cells and their progeny by time-lapse microscopy and single-cell tracking (Rieger et al., 2009). This allowed to track hundreds of H and H/M cells over more than 50 hours in real time and to record their history across cell generations. […] In addition, the inventors knocked down Syk in vivo by transplanting mice with cells that were either transduced with the doxycycline-inducible lentiviral Syk shRNAs or with control shRNAs and treating them with doxycycline for 43 days. Knockdown of Syk prolonged the survival of mice transplanted with H/M cells from a median time of 40.5 days in controls to a median of 103 days (p<0.001) (FIGS. 7C and 7D). Furthermore, mice transplanted with H/M or H cells were treated with the oral Syk inhibitor R788, a prodrug of R406.

H cells [3] = assay: time-lapse microscopy and single-cell tracking; type: cell-based, mouse; settings: compared with DMSO-treated cells, tracked over more than 50 hours
Experimental: as §3

[4] = system: CD34+ progenitor cells isolated from healthy donors; assay: relative viability of CD34+ bone marrow cells from healthy donors; type: cell-based, human
Experimental: Cells were treated for 24 h and DMSO was used as a control. (J) Relative viability of CD34+ bone marrow cells from healthy donors.

H cells [5] = assay: colony formation and replating assay; type: cell-based, mouse
Source text: as §1, §2

H cells [6] = assay: treatment of mice transplanted with H cells; type: in vivo
Source text: (§4) FIG. 7. Meis1 sensitizes Hoxa9-driven leukemia to Syk inhibition. (A) SYK protein expression in H/M cells transfected with either a control shRNA (GL2) or two shRNAs targeting SYK. Actin was used as loading control for relative protein quantification. (B) Percentage of BFP-positive shRNA-expressing cells relative to BFP-negative shRNA-negative cells at the times indicated (mean±SD, normalized to day 0). (C) Same as (A), before and after five days of doxycycline (dox) treatment in vivo. (D) Kaplan-Meier survival curves of mice transplanted with H/M cells and treated with doxycycline for 43 days to express non-specific control and Syk-specific shRNA (n=8). p-value is from a Mantel-Cox test. (E) Percentage of YFP-positive cells from peripheral blood of mice transplanted with H (left) or H/M (right) cells after treating for 7 days with R788 or placebo. Measurements were taken at the indicated time points. The black line connects median values. (F) Kaplan-Meier survival curves of mice transplanted with either H or H/M cells and treated for 20 days with R788 or placebo (n=11). p-value is from a Mantel-Cox test. (G) Relative HOXA9 and MEIS1 mRNA expression in MV4-11 and KG1 cell lines, and in patient-derived AML cells as measured by qPCR, normalized to GAPDH expression (mean±SD, n=3). […] Actin was used as loading control for relative protein quantification. avg, average. […]

H/M cells [7] = assay: treatment of mice transplanted with H/M cells; type: in vivo
Source text: as §4

SMILES | colony formation potential and replating efficiency (H/M cells [1]) | replating efficiency (H/M cells [1]) | replating efficiency (H/S cells) | cell death (H/M cells [2]) | cell death (H cells [3]) | viability [4] | colony formation and replating efficiency (H cells [5]) | level of H cells (percentage of leukemic cells) (H cells [6]; seven days of treatment, oral) | survival (H cells [6]; treatment for 20 days) | reduction of the percentage of leukemic cells (H/M cells [7]; seven days of treatment, oral, peripheral blood YFP-positive cells, on average) | median survival (H/M cells [7]; treatment for 20 days, placebo median 38 days, p<0.001) [days]
COc1cc(Nc2ncc(F)c(Nc3ccc4c(n3)NC(=O)C(C)(C)O4)n2)cc(OC)c1OC [R406] | significantly reduced | decreased replating efficiency | decreased replating efficiency | significant increase in cell death | not significantly affected | did not affect the viability | moderately affecting | – | – | – | –
COc1cc(Nc2ncc(F)c(Nc3ccc4c(n3)N(COP(=O)(O)O)C(=O)C(C)(C)O4)n2)cc(OC)c1OC [R788, fostamatinib] | – | – | – | – | – | – | – | barely affecting | No significant effect | more than 70% | 130

— US20200032350A1, “COMPANION DIAGNOSTICS FOR LEUKEMIA TREATMENT” (JOHANN WOLFGANG GOETHE-UNIVERSITÄT FRANKFURT AM MAIN, priority 2017, published 2020)
